Assay results: US11649238B2, “Substituted pyrazolo[1,5-a]pyrimidines as PI4K inhibitors” (GLAXOSMITHKLINE INTELLECTUAL PROPERTY DEVELOPMENT LIMITED, priority 2018, dated 2023)

Legend:
[1] = target: PI4KIIIβ (Homo sapiens, UniProt Q9UBF8); test: Residence Time Assay (Caliper conditioning assay and jump dilution); format: biochemical; conditions: jump dilution, 2 mM ATP, 1 μM Bodipy-PI
Description: Caliper Conditioning Assay
Compound dilutions were prepared in 100% DMSO using a 1 in 3 serial step dilution and a top concentration of 1 mM. A 200 nL stamp from a 12-point titration was transferred to a black 384-well Greiner assay plate ensuring a final DMSO concentration of 1% across the plate and a top final concentration of inhibitor of 10 μM in 20 μL final assay volume. To a well of a 384-well assay plate 10 μL of 2× Enzyme buffer was pre-incubated with compound for 1 h. Buffer without enzyme was used as 100%-inh control. 10 μL of 2× substrate solution was added to initiate the assay such that the final concentrations were 2 mM ATP and 1 μM Bodipy-PI and the plate was incubated at 25° C. for 3 hours. The enzymatic reaction was terminated by adding 40 μL of stop buffer and Substrate (PI) and product (PIP) present in each sample were separated electrophoretically using a LabChip 3000 capillary electrophoresis instrument CALIPER LABCHIP 3000 Drug Discovery System and detected using blue laser (480 nm) for excitation and green CCD (520 nm) for detection (CCD2). Negative control samples (0%-inhibition in the absence of inhibitor) and positive control samples (100%-inhibition, in the absence of enzyme) were assembled in replicates of 48 (4 replicates per caliper sipper) and were used to calculate %-inhibition values in each test well. Percent inhibition (Pinh) was determined using following equation: Pinh=(PSRO %−PSRinh)/(PSRO %−PSR100%)×100
Where PSRinh is the product sum ratio in the presence of inhibitor, PSRO % is the average product sum ratio in the absence of inhibitor and PSR100% is the average product sum ratio in 100%-inhibition control samples; the IC50 values of inhibitors are determined by fitting the inhibition curves (Pinh versus inhibitor concentration) to the 4 parameter sigmoid dose-response model using XLfit 4 software (IBDS).
In a small Eppendorf tube, 5 μL of 2× enzyme solution (0.4 μM-0.8 μM) was mixed with 5 μL 2× compound solution containing 40 to 120-fold the IC50 value determined at 2 mM ATP as described above, and incubated for 1 h at room temperature. The assay was initiated by rapidly mixing 2 μL of the enzyme preincubation mixture with 800 μL substrate mix containing 2 mM ATP and 1 μM Bodipy-PI. 60 μL of each sample was transferred into low volume Greiner 384-well plate, and the Substrate (PI) and product (PIP) present in each sample were separated electrophoretically using a LabChip 3000 capillary electrophoresis instrument CALIPER LABCHIP 3000 Drug Discovery System and detected using blue laser (480 nm) for excitation and green CCD (520 nm) for detection (CCD2) for approximately 8 h (200 measurements from each well). […]

[2] = Human Microsomal Metabolic Stability Assay; format: in vitro ADME; conditions: 0.5 μM test compound, 0.5 mg/mL microsomal protein, 45 min
Description: d) Human Microsomal Metabolic Stability Assay Protocol Summary Test compound (0.5 μM) was incubated with pooled liver microsomes. Test compound was incubated over the course of a 45 min experiment and the test compound was analysed by LC-MS/MS. Experimental Procedure Pooled human liver microsomes were purchased from a reputable commercial supplier, for example Corning Life Sciences. Microsomes (final protein concentration 0.5 mg/mL), 50 mM phosphate buffer pH7.4 and NADPH (final concentration=1 mM) were pre-incubated at 37° C. prior to the addition of test compound (final substrate concentration=0.5 μM; final DMSO concentration=0.25%) to initiate the reaction. The final incubation volume was 500 μL. A control incubation was included for each compound tested where 50 mM phosphate buffer pH7.4 was added instead of NADPH (minus NADPH). Two control compounds were included with each species. All incubations are performed singularly for each test compound. Each compound was incubated for 45 minutes and samples (50 μL) of incubate were taken at 0, 5, 15, 30 and 45 min. The control (minus NADPH) was sampled at 45 min only. The reactions were stopped by the addition of 100 μL acetonitrile containing internal standard to the sample. The terminated samples were centrifuged at 2,500 rpm for 20 min at 4° C. to precipitate the protein. Quantitative Analysis Following protein precipitation, the samples were analysed using generic LC-MS/MS conditions. Data Analysis From a plot of In peak area ratio (compound peak area/internal standard peak area) against time, the gradient of the line was determined. Subsequently, intrinsic clearance was calculated using the equations below, then converted to mL/min/g: Elimination rate constant (k)=(−gradient) Half life (t½) (min)=0.693+k Intrinsic Clearance (CLint) (μL/min/mg protein)=(V×0.693)+t1/2 where V=Incubation volume μL/mg microsomal protein.

[3] = Spleen Concentration Assay; format: in vivo; conditions: male, Wistar Han, rat, intravenous, 1 mg/kg, intravenous infusion 1 mg/kg over 1 h, single male Wistar Han rat, 12 hours after the start of dosing
Description: e) Spleen Concentration Assay Compounds 17, 18, 19, 22 and 23 were tested in this spleen accumulation assay. Compounds were administered intravenously to rats to determine what the level of the compound in the spleen would be if all of the inhaled dose was absorbed (either orally or through the lungs) and systemic circulation was exposed to the full dose. Compounds 17, 19, 22 and 23 were formulated in 2% DMSO in Kleptose (aq, 10% w/v). Compound 18 was formulated in a 5:45:50 ratio of DMSO:PEG200:water. Formulations were administered as intravenous infusions (1 mg/kg over 1 h) to a single male, Wistar Han rat. 12 hours after the start of dosing, rats were euthanised and spleens were collected. Approximately 0.5 g samples of spleen were taken and homogenised in 4 mL water. 100 μL of the resulting homogenates were prepared by protein precipitation with 300 μL of acetonitrile containing an internal standard and assayed (along with calibration standards prepared in the same manner) by reversed-phase liquid chromatography-mass spectrometry, using a heated electrospray source and operated in the positive ion multiple reaction monitoring mode. The liquid chromatography column used was a Waters Cortecs C18 2.7 μm particle size, 50×2.1 mm column at 60° C., and the mobile phase, operated as a gradient, utilised (A) 0.1% formic acid (aq) and (B) 0.1% formic acid in acetonitrile, operated at a flow rate of 1 mL/min.

PI4KIIIβ, sequence (Q9UBF8 whole entry): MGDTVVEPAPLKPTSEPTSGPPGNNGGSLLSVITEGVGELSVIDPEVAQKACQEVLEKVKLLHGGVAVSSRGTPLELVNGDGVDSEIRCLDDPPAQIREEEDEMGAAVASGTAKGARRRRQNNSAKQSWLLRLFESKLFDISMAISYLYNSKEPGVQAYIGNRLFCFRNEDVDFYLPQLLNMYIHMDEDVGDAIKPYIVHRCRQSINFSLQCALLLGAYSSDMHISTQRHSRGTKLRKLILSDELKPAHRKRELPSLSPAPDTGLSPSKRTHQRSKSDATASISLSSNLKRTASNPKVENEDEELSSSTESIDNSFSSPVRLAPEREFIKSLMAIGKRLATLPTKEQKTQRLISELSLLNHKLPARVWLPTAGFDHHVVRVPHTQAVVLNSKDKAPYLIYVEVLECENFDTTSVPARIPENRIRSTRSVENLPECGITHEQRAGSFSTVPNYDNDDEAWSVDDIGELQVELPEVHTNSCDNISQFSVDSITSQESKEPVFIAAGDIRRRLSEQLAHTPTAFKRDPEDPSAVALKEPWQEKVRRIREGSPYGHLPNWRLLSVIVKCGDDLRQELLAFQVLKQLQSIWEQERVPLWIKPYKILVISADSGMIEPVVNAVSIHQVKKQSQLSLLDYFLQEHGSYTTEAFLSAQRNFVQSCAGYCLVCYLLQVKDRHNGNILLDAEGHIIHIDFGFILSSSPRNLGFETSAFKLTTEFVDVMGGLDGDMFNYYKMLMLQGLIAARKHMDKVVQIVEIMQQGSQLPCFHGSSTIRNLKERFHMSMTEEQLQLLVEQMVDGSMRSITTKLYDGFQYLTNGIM

SMILES	residence time [1] [min]	intrinsic clearance [2] [mL/min/g]	concentration at 12 h [3] [ng/g]
Cc1ccc(-c2c(C)nn3c(NCc4cccc(-c5nccn5C)c4)cc(C(C)(C)O)nc23)cc1C(=O)N(C)CCCO [Compound 17, 5-(5-(2-Hydroxypropan-2-yl)-2-methyl-7-((3-(1-methyl-1H-imidazol-2-yl)benzyl)amino)pyrazolo[1,5-a]pyrimidin-3-yl)-N-(3-hydroxypropyl)-N,2-dimethylbenzamide]	542	28.9	
CCN(CCO)C(=O)c1cc(-c2c(C)nn3c(NCc4cccc(-c5nccn5C)c4)cc(C(C)(C)O)nc23)ccc1OC [Compound 19, N-ethyl-N-(2-hydroxyethyl)-5-(5-(2-hydroxypropan-2-yl)-2-methyl-7-((3-(1-methyl-1H-imidazol-2-yl)benzyl)amino)pyrazolo[1,5-a]pyrimidin-3-yl)-2-methoxybenzamide]	997	11.6	< 7
COc1ccc(-c2c(C)nn3c(NCc4cccc(-c5nccn5C)c4)cc(C(C)(C)O)nc23)cc1C(=O)N(C)C1CCOCC1 [Compound 21, 5-(5-(2-Hydroxypropan-2-yl)-2-methyl-7-((3-(1-methyl-1H-imidazol-2-yl)benzyl)amino)pyrazolo[1,5-a]pyrimidin-3-yl)-2-methoxy-N-methyl-N-(tetrahydro-2H-pyran-4-yl)benzamide]	528	34.0	
Cc1ccc(-c2c(C)nn3c(NCc4cccc(-c5nccn5C)c4)cc(C(C)(C)O)nc23)cc1C(=O)N(C)[C@@H](C)CO [Compound 22, (S)—N-(1-hydroxypropan-2-yl)-5-(5-(2-hydroxypropan-2-yl)-2-methyl-7-((3-(1-methyl-1H-imidazol-2-yl)benzyl)amino)pyrazolo[1,5-a]pyrimidin-3-yl)-N,2-dimethylbenzamide]	1670	33.7	< 7
